Columns and labels:
[1] = test system: ALOMY; assay: Pre-emergence herbicidal action against ALOMY; type: in vivo, Alopecurus myosuroides; settings: 320 g/ha, scored visually after 3 weeks vs untreated controls
How it was run: (§1)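 Pre-emergence soil-surface application: WP/EC in water, 600 to 800 L/ha, + 0.2% wetting agent, onto soil-covered seeds in sandy loam. Greenhouse, 3 wk. Visual % activity vs untreated (100% = dead).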

[2] = test system: AVEFA; assay: Pre-emergence herbicidal action against AVEFA; type: in vivo, Avena fatua; settings: 320 g/ha, scored visually after 3 weeks vs untreated controls
How it was run: as §1

[3] = test system: DIGSA; assay: Pre-emergence herbicidal action against DIGSA; type: in vivo, Digitaria sanguinalis; settings: 320 g/ha, scored visually after 3 weeks vs untreated controls
How it was run: as §1

[4] = test system: ECHCG; assay: Pre-emergence herbicidal action against ECHCG; type: in vivo, Echinochloa crus-galli; settings: 320 g/ha, scored visually after 3 weeks vs untreated controls
How it was run: as §1

[5] = test system: LOLRI; assay: Pre-emergence herbicidal action against LOLRI (Table 8, titled post-emergence at 320 g/ha); type: in vivo, Lolium rigidum; settings: table stands in the pre-emergence section
How it was run: as §1

[6] = test system: SETVI; assay: Pre-emergence herbicidal action against SETVI; type: in vivo, Setaria viridis; settings: 320 g/ha, scored visually after 3 weeks vs untreated controls
How it was run: as §1

[7] = test system: AMARE; assay: Pre-emergence herbicidal action against AMARE; type: in vivo, Amaranthus retroflexus; settings: 320 g/ha
How it was run: as §1

[8] = test system: MATIN; assay: Pre-emergence herbicidal action against MATIN; type: in vivo; settings: 320 g/ha
Source text: (§2) Seeds of monocotyledonous and dicotyledonous weed plants and crop plants are laid out in sandy loam soil in wood-fiber pots and covered with soil. The compounds of the invention, formulated in the form of wettable powders (WP) or as emulsion concentrates (EC), are then applied to the surface of the covering soil as aqueous suspension or emulsion at a water application rate equating to 600 to 800 L/ha with addition of 0.2% wetting agent.
(§3) After the treatment, the pots are placed in a greenhouse and kept under good growth conditions for the trial plants. The damage to the test plants is scored visually after a test period of 3 weeks by comparison with untreated controls (herbicidal activity in percent (%): 100% activity=the plants have died, 0% activity=like control plants).

[9] = test system: VIOTR; assay: Pre-emergence herbicidal action against VIOTR; type: in vivo, Viola tricolor; settings: 320 g/ha
How it was run: as §1

[10] = test system: VERPE; assay: Pre-emergence herbicidal action against VERPE; type: in vivo, Veronica persica; settings: 320 g/ha
Source text: as §2, §3

[11] = test system: ALOMY; assay: Post-emergence herbicidal action against ALOMY; type: in vivo, Alopecurus myosuroides; settings: 80 g/ha, visual assessment after about 3 weeks
How it was run: (§4)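 Weeds were grown in sandy loam in a greenhouse and treated at the one-leaf stage, 2 to 3 weeks after sowing. WP or EC formulations were sprayed onto green parts at 600 to 800 l/ha water with 0.2% wetting agent. Visual % action versus untreated controls was scored after about 3 weeks.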

[12] = test system: AVEFA; assay: Post-emergence herbicidal action against AVEFA; type: in vivo, Avena fatua; settings: 80 g/ha, visual assessment after about 3 weeks
How it was run: as §4

[13] = test system: DIGSA; assay: Post-emergence herbicidal action against DIGSA; type: in vivo, Digitaria sanguinalis; settings: 80 g/ha, visual assessment about 3 weeks after treatment vs untreated controls
How it was run: as §4

[14] = test system: ECHCG; assay: Post-emergence herbicidal action against ECHCG; type: in vivo, Echinochloa crus-galli; settings: 80 g/ha, visual assessment about 3 weeks after treatment vs untreated controls
How it was run: as §4

[15] = test system: LOLRI; assay: Post-emergence herbicidal action against LOLRI; type: in vivo, Lolium rigidum; settings: 80 g/ha, visual assessment about 3 weeks after treatment vs untreated controls
How it was run: as §4

[16] = test system: SETVI; assay: Post-emergence herbicidal action against SETVI; type: in vivo, Setaria viridis; settings: 80 g/ha, visual assessment about 3 weeks after treatment vs untreated controls
How it was run: as §4

**Q.** What does the source list for `C#CCOCC1CCC2(C1)NC(=O)C(c1c(C)cc(C#CC)cc1Cl)=C2O` (stereo not shown) [Example I-78]?
**A.** Pre-emergence action against ALOMY in % [1]: 100%; Pre-emergence action against AVEFA in % [2]: 90%; Pre-emergence action against DIGSA in % [3]: 100%; Pre-emergence action against ECHCG in % [4]: 100%; Pre-emergence herbicidal action against LOLRI in % [5]: 100%; Pre-emergence action against SETVI in % [6]: 100%; Pre-emergence action against AMARE in % [7]: 100%; Pre-emergence action against MATIN in % [8]: 80%; Pre-emergence action against VIOTR in % [9]: 100%; Pre-emergence action against VERPE in % [10]: 90%; Post-emergence action against ALOMY in % [11]: 100%; Post-emergence action against AVEFA in % [12]: 80%; Post-emergence action against DIGSA in % [13]: 90%; Post-emergence action against ECHCG in % [14]: 90%; Post-emergence action against LOLRI in % [15]: 90%; Post-emergence action against SETVI in % [16]: 100%

**Q.** `CC#Cc1cc(Br)c(C2=C(OC(=O)OCC)C3(CCC(COCC)C3)NC2=O)c(OC)c1` (stereo not shown) [Example P-01] was tested. Which “Pre-emergence action against ALOMY in %” value [1] did it give?
**A.** 100%

**Q.** And the “Pre-emergence action against AVEFA in %” value [2]?
**A.** 100%

**Q.** What about the “Pre-emergence action against DIGSA in %” value [3] of the same compound?
**A.** 100%

**Q.** And the “Pre-emergence action against ECHCG in %” value [4]?
**A.** 100%

**Q.** What about the “Pre-emergence herbicidal action against LOLRI in %” value [5] of the same compound?
**A.** 100%

**Q.** And the “Pre-emergence action against SETVI in %” value [6]?
**A.** 100%

**Q.** And the “Pre-emergence action against AMARE in %” value [7]?
**A.** 100%

**Q.** And the “Pre-emergence action against MATIN in %” value [8]?
**A.** 80%

**Q.** And the “Pre-emergence action against VIOTR in %” value [9]?
**A.** 100%

**Q.** And the “Pre-emergence action against VERPE in %” value [10]?
**A.** 100%

**Q.** And the “Post-emergence action against ALOMY in %” value [11]?
**A.** 100%

**Q.** What about the “Post-emergence action against DIGSA in %” value [13] of the same compound?
**A.** 100%

**Q.** What about the “Post-emergence action against ECHCG in %” value [14] of the same compound?
**A.** 100%

**Q.** And the “Post-emergence action against LOLRI in %” value [15]?
**A.** 100%

**Q.** What about the “Post-emergence action against SETVI in %” value [16] of the same compound?
**A.** 100%

**Q.** For `CC#Cc1cc(Br)c(C2=C(OC(=O)OCC)C3(CCC(COCC)C3)NC2=O)c(OC)c1` (stereo not shown) [Example P-05], which “Pre-emergence action against ALOMY in %” value [1] is on record?
**A.** 100%

**Q.** What about the “Pre-emergence action against AVEFA in %” value [2] of the same compound?
**A.** 100%

**Q.** What about the “Pre-emergence action against DIGSA in %” value [3] of the same compound?
**A.** 100%

**Q.** And the “Pre-emergence action against ECHCG in %” value [4]?
**A.** 100%

**Q.** What about the “Pre-emergence herbicidal action against LOLRI in %” value [5] of the same compound?
**A.** 100%

**Q.** What about the “Pre-emergence action against SETVI in %” value [6] of the same compound?
**A.** 100%

**Q.** And the “Pre-emergence action against AMARE in %” value [7]?
**A.** 100%

**Q.** And the “Pre-emergence action against MATIN in %” value [8]?
**A.** 90%

**Q.** What about the “Pre-emergence action against VIOTR in %” value [9] of the same compound?
**A.** 100%

**Q.** And the “Pre-emergence action against VERPE in %” value [10]?
**A.** 80%

**Q.** What about the “Post-emergence action against ALOMY in %” value [11] of the same compound?
**A.** 100%

**Q.** And the “Post-emergence action against DIGSA in %” value [13]?
**A.** 100%

**Q.** What about the “Post-emergence action against ECHCG in %” value [14] of the same compound?
**A.** 100%

**Q.** What about the “Post-emergence action against LOLRI in %” value [15] of the same compound?
**A.** 100%

**Q.** What about the “Post-emergence action against SETVI in %” value [16] of the same compound?
**A.** 100%

**Q.** What does the source list for `CC#Cc1cc(C)c(C2=C(OC(=O)OCC)C3(CCC(COC)C3)NC2=O)c(OC)c1` (stereo not shown) [Example P-55]?
**A.** Pre-emergence action against ALOMY in % [1]: 100%; Pre-emergence action against AVEFA in % [2]: 80%; Pre-emergence action against DIGSA in % [3]: 100%; Pre-emergence action against ECHCG in % [4]: 100%; Pre-emergence herbicidal action against LOLRI in % [5]: 100%; Pre-emergence action against SETVI in % [6]: 100%; Pre-emergence action against MATIN in % [8]: 90%; Pre-emergence action against VIOTR in % [9]: 100%; Pre-emergence action against VERPE in % [10]: 80%; Post-emergence action against ALOMY in % [11]: 100%; Post-emergence action against AVEFA in % [12]: 100%; Post-emergence action against DIGSA in % [13]: 100%; Post-emergence action against ECHCG in % [14]: 100%; Post-emergence action against LOLRI in % [15]: 100%; Post-emergence action against SETVI in % [16]: 100%

**Q.** For `C#CCOCC1CCC2(C1)NC(=O)C(c1c(C)cc(C#CC)cc1OC)=C2OC(=O)OCC` (stereo not shown) [Example P-103], which “Pre-emergence action against ALOMY in %” value [1] is on record?
**A.** 100%

**Q.** What about the “Pre-emergence action against AVEFA in %” value [2] of the same compound?
**A.** 100%

**Q.** What about the “Pre-emergence action against DIGSA in %” value [3] of the same compound?
**A.** 100%

**Q.** And the “Pre-emergence action against ECHCG in %” value [4]?
**A.** 100%

**Q.** What about the “Pre-emergence herbicidal action against LOLRI in %” value [5] of the same compound?
**A.** 100%

**Q.** And the “Pre-emergence action against SETVI in %” value [6]?
**A.** 100%

**Q.** What about the “Pre-emergence action against AMARE in %” value [7] of the same compound?
**A.** 100%

**Q.** What about the “Pre-emergence action against MATIN in %” value [8] of the same compound?
**A.** 90%

**Q.** What about the “Pre-emergence action against VERPE in %” value [10] of the same compound?
**A.** 90%

**Q.** What about the “Post-emergence action against ALOMY in %” value [11] of the same compound?
**A.** 100%

**Q.** And the “Post-emergence action against AVEFA in %” value [12]?
**A.** 90%

**Q.** What about the “Post-emergence action against DIGSA in %” value [13] of the same compound?
**A.** 100%

**Q.** What about the “Post-emergence action against ECHCG in %” value [14] of the same compound?
**A.** 100%

**Q.** What about the “Post-emergence action against LOLRI in %” value [15] of the same compound?
**A.** 90%

**Q.** What about the “Post-emergence action against SETVI in %” value [16] of the same compound?
**A.** 100%
